Biological target: T1, Type-2 angiotensin II receptor (Homo sapiens, UniProt P50052)
T1 sequence (P50052 whole entry): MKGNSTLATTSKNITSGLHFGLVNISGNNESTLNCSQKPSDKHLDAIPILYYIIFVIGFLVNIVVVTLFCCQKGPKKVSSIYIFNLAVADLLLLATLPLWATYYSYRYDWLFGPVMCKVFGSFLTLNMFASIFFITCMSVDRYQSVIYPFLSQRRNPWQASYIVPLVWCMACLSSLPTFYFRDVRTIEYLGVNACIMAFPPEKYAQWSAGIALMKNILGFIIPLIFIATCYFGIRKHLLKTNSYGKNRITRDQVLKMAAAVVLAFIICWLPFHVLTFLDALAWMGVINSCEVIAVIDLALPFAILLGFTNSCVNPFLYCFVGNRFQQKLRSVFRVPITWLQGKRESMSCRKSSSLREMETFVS
Assay: AT2 Receptor Binding Assay: 120 μL membrane ([…]) was incubated with 15 μL of [125I]-CGP42112A and 15 μL of compound at RT for 1.5 hrs.The binding reaction was stopped by rapid filtration through Unifilter GF/C plates (presoaked in 0.3% (v:v) BSA).Plate was washed three times with ice cold wash buffer.The filtration plates were dried at 37° C. overnight.50 μL of scintillation cocktail was added to each well.Radioactivity was determined using MicroBetaTriltuunicroplate scintillation counter.

IC50: 3.92 µM
SMILES: O=C(O)[C@@H]1CN(CC#Cc2ccc(F)cc2)CCN1C(=O)C(c1ccccc1)c1ccccc1

Reference: ChEMBL document CHEMBL5725503, “Heterocyclic compounds and methods for their use” (2017)
